Data taken from PMC12152883, “Bile acids inhibit equilibrative adenosine transport to alter adenosine receptor signaling in cholestasis” (The Journal of Biological Chemistry, 2025).
Several values for one entry are separate records, joined by “and”; a condition that tells them apart may be missing. Equal values may be shown once.

Tests used:
ENT2 = target: T1, ENT2 (Homo sapiens, UniProt Q14542); assay: BA transport by ENT2-injected oocytes quantified by LC-MS/MS; format: cell-based; parameters: expressed in transfected cells; host or cells: Xenopus laevis oocytes injected with in vitro-transcribed capped mRNA from pOX-hENT2; details: pH 7.4, p < 0.001 compared with water-injected oocytes
T1 sequence (Q14542 1-456): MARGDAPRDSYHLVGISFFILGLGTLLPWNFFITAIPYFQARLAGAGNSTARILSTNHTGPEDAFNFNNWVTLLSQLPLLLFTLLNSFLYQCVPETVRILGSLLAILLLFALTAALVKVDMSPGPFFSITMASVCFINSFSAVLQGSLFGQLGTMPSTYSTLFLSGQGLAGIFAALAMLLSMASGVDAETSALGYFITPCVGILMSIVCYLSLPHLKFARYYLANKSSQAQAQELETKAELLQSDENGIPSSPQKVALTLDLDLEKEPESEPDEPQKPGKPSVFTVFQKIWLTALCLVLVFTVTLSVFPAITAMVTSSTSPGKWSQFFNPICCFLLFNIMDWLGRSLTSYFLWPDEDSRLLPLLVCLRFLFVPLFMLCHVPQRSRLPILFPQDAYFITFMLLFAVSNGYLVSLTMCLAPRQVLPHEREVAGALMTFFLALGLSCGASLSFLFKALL
Method: Therefore, we studied several different BAs and used a liquid chromatography–tandem mass spectrometry (LC‒MS/MS) method to quantify the transport activity of H2O-injected and ENT2 mRNA-injected oocytes using TCA as a positive control. […] We subsequently tested the ability of ENT2 to transport BAs at different physiological pH values ranging from pH 5.5 to pH 7.4 by varying the pH of the transport buffers in which the assay was conducted.
The mass spectrometric validation of the transport of all metabolites was performed with oocytes using a previously reported method ([24]). […] After an incubation at 4 °C for 24 h, the samples were centrifuged at 20,000g for 10 min, and the supernatants were collected. The samples (10 μl) were injected into a Thermo Scientific Vanquish UPLC system interfaced with a Thermo Scientific TSQ Quantiva triple-stage quadrupole mass spectrometer equipped with an H-ESI ion source. MS detection was conducted in negative ionization mode, and the transitions monitored for each metabolite are listed in Sup. Table S2. The operational mass spectrometric parameters included a capillary voltage of 4.5 kV; sheath gas of 35 arbitrary units; auxiliary gas of 10 arbitrary units; sweep gas of two arbitrary units; ion transfer tube temperature of 350 °C; vaporizer temperature of 450 °C; dwell time of 50 ms per transition; collision energy of 5 V; and collision-induced dissociation gas of 1.5 mTorr. Chromatographic separation was performed on a Kinetex […] (100 × 2.1 mm; 1.7 μm particle size) from Phenomenex. The mobile phase consisted of solvent A: water (0.1% formic acid) and solvent B: acetonitrile (0.1% formic acid). The flow rate was set at 0.3 ml/min, and the autosampler was maintained at 4 °C throughout the analysis.

ENT3 = target: T2, ENT3 (Homo sapiens, UniProt Q9BZD2); parameters: method as in PMID 33623001; details: previous studies, cited from earlier work; for Km: read-out: Km of BA transport by ENT3
T2 construct: plasma membrane–directed ENT3 with a truncated N-terminus (that harbors lysosomal targeting motif); expressed in transfected cells; host or cells: Xenopus laevis oocytes injected with in vitro-transcribed mRNA from pOX-Δ36hENT3
T2 sequence (Q9BZD2 with tags, fused parts or gaps): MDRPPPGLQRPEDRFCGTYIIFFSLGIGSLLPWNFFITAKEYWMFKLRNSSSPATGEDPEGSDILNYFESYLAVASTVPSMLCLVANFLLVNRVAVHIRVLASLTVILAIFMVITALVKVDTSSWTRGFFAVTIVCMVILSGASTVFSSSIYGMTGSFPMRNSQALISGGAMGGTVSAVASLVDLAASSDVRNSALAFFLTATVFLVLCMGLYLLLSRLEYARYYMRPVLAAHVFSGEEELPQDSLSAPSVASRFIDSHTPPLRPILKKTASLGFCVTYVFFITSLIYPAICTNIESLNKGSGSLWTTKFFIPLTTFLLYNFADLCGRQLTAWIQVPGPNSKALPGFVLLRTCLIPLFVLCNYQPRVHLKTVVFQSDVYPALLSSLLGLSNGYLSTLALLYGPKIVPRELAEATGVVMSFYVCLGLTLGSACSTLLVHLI

[1] = Cholestatic mouse model: liver CA, 13C-Ado and total Ado by LC/MS-MS; format: in vivo; details: includes endogenous Ado
Method: We also examined the total Ado content (includes endogenous Ado) in the harvested mouse livers using LC‒MS‒MS.
Adenosine and ^13C-Ado concentrations were determined in liver tissue samples using a targeted LC‒MS/MS method. The liver samples (∼50 mg) were homogenized with 80% methanol and spiked with 1 μg/ml reserpine as an internal standard. The samples were thoroughly vortexed for 30 s and then centrifuged at 20,000g for 10 min. The supernatant was collected in labeled Eppendorf tubes, and 15 μl of each sample was injected into the LC‒MS/MS system. […] The operational mass spectrometric parameters included a capillary voltage of 4.5 kV; sheath gas of 35 arbitrary units; auxiliary gas of 10 arbitrary units; sweep gas of two arbitrary units; ion transfer tube temperature of 350 °C; vaporizer temperature of 450 °C; dwell time of 50 ms per transition, and collision-induced dissociation gas of 1.5 mTorr. The collision energy was set at 20 V for both Ado and ^13C-Ado, whereas it was set to 38 V for reserpine. Chromatographic separation was performed on a Scherzo SMC18 column (150 × 4.6 mm; 3 μm particle size) from Imtakt. […]
Two hours after the injection, mouse livers were harvested, and the amount of ^13C-Ado uptake in the liver was quantified via LC–MS-MS. […]

HeLa cell line = assay: 3H-nucleoside uptake inhibition by BAs in HeLa cell line; format: cell-based; details: BA 100 μM; for % Inhibition of Ado uptake, HeLa cell line, Sodium buffer / % Inhibition of Ado uptake, HeLa cell line, Sodium-free buffer: 3H-Ado 0.02 μM; for extent of inhibition of guanosine transport, HeLa cells: 3H-guanosine 0.02 μM, Na+-free
Method: (§1) The bars represent the mean ± SD (n = 3). A representative experiment from 3 to 5 independent experiments is presented. Statistical analysis was performed using one-way ANOVA with Dunnett’s multiple comparisons test; ∗p < 0.032, ∗∗p < 0.0021, ∗∗∗p < 0.0002.
(§2) HeLa (CCL-2) and HepG2 (HB_8065) were procured from ATCC. Both cell lines were cultured in Eagle's minimum essential medium and Dulbecco's modified Eagle's medium, respectively, supplemented with 10% fetal bovine serum and penicillin-streptomycin (1X). After cells were tested free for mycoplasma contamination, they were plated in 24-well plates, and transport assays were conducted when the cells were 80% confluent. The cells were briefly rinsed with PBS, and then the uptake of radiolabeled substrates was measured after a 5 min incubation in sodium containing (130 mM NaCl, 20 mM Tris–HCl, 3 mM K2HPO4, 1 mM MgCl2.6H2O, 2 mM CaCl2, 5 mM glucose, pH 7.4) or sodium-free (130 mM N-methyl-D-glucamin, 20 mM Tris–HCl, 3 mM K2HPO4, 1 mM MgCl2.6H2O, 2 mM CaCl2, 5 mM glucose, pH 7.4) transport buffers at 37 °C. Uptake was terminated by washing the cells three times with ice-cold arrest buffer containing 20 mM uridine. The cells were shaken for 30 min in 10% SDS for complete dissolution, after which the radioactivity was quantified with a Beckman liquid scintillation counter. The data are presented as the mean ± SD (n = 3).

HepG2 cell line = assay: 3H-nucleoside uptake inhibition by BAs in HepG2 cell line; format: cell-based; details: BA 100 μM; for % Inhibition of Ado uptake, HepG2 cell line, Sodium buffer / % Inhibition of Ado uptake, HepG2 cell line, Sodium-free buffer: 3H-Ado 0.02 μM; for extent of inhibition of guanosine transport, HepG2 cells: 3H-guanosine 0.02 μM, Na+-free
Text: In the presence of multiple substrates with similar affinities, the abundant substrate molecules can compete for binding to the transport sites, reducing the transport of the limiting substrate molecules ([31]). […] We tested the possibility of BA-mediated nucleoside transport inhibition using a HeLa cell line (expressing ENTs (ENT1, ENT2) ([32])) and a HepG2 cell line (expressing both ENTs (ENT1, ENT2) and CNTs (CNT1, CNT2) ([33])) to conduct Ado uptake inhibition assays in Na^+-containing (where both ENTs and CNTs are capable of transport) and Na^+-free (only ENTs are capable of transport) buffers (Fig. 3 and Table 1).
as §1, §2

Compound	transport by ENT2 mRNA-injected vs water-injected oocytes (LC-MS/MS) (ENT2)	Vmax of BA transport by ENT3 (ENT3)	Km (ENT3)	reduction in the total Ado level in liver compared with control mice [1]	% Inhibition of Ado uptake, HeLa cell line, Sodium buffer (HeLa cell line)	% Inhibition of Ado uptake, HeLa cell line, Sodium-free buffer (HeLa cell line)	extent of inhibition of guanosine transport, HeLa cells (HeLa cell line)	% Inhibition of Ado uptake, HepG2 cell line, Sodium buffer (HepG2 cell line)	% Inhibition of Ado uptake, HepG2 cell line, Sodium-free buffer (HepG2 cell line)	extent of inhibition of guanosine transport, HepG2 cells (HepG2 cell line)
C[C@H](CCC(=O)O)[C@H]1CC[C@H]2[C@@H]3[C@H](O)C[C@@H]4C[C@H](O)CC[C@]4(C)[C@H]3C[C@H](O)[C@]12C [CA, cholic acid]	significant transport	3.07 ± 0.04 pmol/30 min/oocyte	168 ± 13.3 µM	~12%	52.17 ± 0.51%	48.8% and 48.78 ± 0.52%	16.1%	n.s.	59.86 ± 0.19%	12%
C[C@H](CCC(=O)O)[C@H]1CC[C@H]2[C@@H]3CC[C@@H]4C[C@H](O)CC[C@]4(C)[C@H]3C[C@H](O)[C@]12C [DCA, deoxycholic acid]		3.4 ± 0.06 pmol/30 min/oocyte	270 ± 24.3 µM		41.33 ± 0.10%	67.86 ± 1.67%	0%	n.s.	49.36 ± 0.02%	12%
C[C@H](CCC(=O)NCCS(=O)(=O)O)[C@H]1CC[C@H]2[C@@H]3[C@H](O)C[C@@H]4C[C@H](O)CC[C@]4(C)[C@H]3C[C@H](O)[C@]12C [TCA, taurocholic acid]	significant transport				59.20 ± 0.31%	67.21 ± 0.08%	0%	n.s.	62.36 ± 0.03%	17.5%
